Experiments:
[1] = LD50 (acute toxicity, i.g.); details: in vivo, po, species not given
[2] = antiphlogistic (anti-inflammatory) activity; assay type: in vivo
analgesic activity = assay type: in vivo; details: dose not given
Shay Rat = experiment: antisecretory activity (Shay Rat); assay type: in vivo; details: i.g.
Guinea pig cough = Guinea pig cough (Antitussive); assay type: in vivo; details: Example 8 250 mg/kg equivalent to 150 mg/kg codeine

SMILES	LD50 [1]	Activity: Guinea pig cough (Antitussive), equivalent dose (Guinea pig cough)	other results
CCC(=O)N=C1N=S(=O)(c2ccccc2)c2ccccc21 (stereo not shown) [Example 6, 3-(Propionylimino)-1-phenyl-3H-1,2-benzisothiazole-1-oxide]	1600 mg/kg		Activity: antiphlogistic / anti-inflammatory (in words) ([2]; dose not given): Antiphlogistic; Activity: analgesic (in words) (analgesic activity): analgesic
CC(C)C(=O)N=C1N=S(=O)(c2ccccc2)c2ccccc21 (stereo not shown) [Example 7, 3-(Isobutyrylimino)-1-phenyl-3H-1,2-benzisothiazole-1-oxide]	600 mg/kg		Activity: antisecretory (dose) (Shay Rat): 100 mg/kg
CS1(=O)=NC(=NC(=O)c2ccccc2O)c2ccccc21 (stereo not shown) [Example 8, 3-(Salicyloylimino)-1-methyl-3H-1,2-benzisothiazole-1-oxide]	1600 mg/kg	250 mg/kg	
CCOC(=O)N=C1N=S(=O)(c2ccccc2)c2ccccc21 (stereo not shown) [Example 12, 3-(Ethoxycarbonylimino)-1-phenyl-3H-1,2-benzisothiazole-1-oxide]	1600 mg/kg		Activity: antiphlogistic (dose) ([2]; dose at which antiphlogistic activity is stated, route and species not given): 250 mg/kg
COc1ccc2c3c1O[C@H]1[C@@H](O)C=C[C@H]4[C@@H](C2)N(C)CC[C@@]341 [codeine, reference compound]		150 mg/kg	

— patent US3953464A, “Cyclic sulphoximides” (Warner-Lambert Company, priority 1973, dated 1976)
